Measurements as given in patent US20080026996A1, “Selective Vpac2 Receptor Reptide Agonists” (ELI LILLY AND COMPANY, priority 2004, published 2008).
Where no end group is shown, it is not given here. [ ]: non-standard residue; d: D form. The star is where a group is joined. hArg = N=C(N)NCCCC[C@H](N)C(=O)O; Nle = CCCC[C@H](N)C(=O)O; Hexanoyl = CCCCCC(=O)*; Aib = CC(C)(N)C(=O)O

Key:
human VPAC1 = target: T1, human VPAC1 (Homo sapiens, UniProt P32241); test: Filter binding assay, membranes of cells transiently transfected with human VPAC1, 125I-labeled VIP tracer (Table 2); set-up: expressed in transfected cells; details: read-out: Human VPAC1 Receptor Binding
T1 sequence (P32241 31-457): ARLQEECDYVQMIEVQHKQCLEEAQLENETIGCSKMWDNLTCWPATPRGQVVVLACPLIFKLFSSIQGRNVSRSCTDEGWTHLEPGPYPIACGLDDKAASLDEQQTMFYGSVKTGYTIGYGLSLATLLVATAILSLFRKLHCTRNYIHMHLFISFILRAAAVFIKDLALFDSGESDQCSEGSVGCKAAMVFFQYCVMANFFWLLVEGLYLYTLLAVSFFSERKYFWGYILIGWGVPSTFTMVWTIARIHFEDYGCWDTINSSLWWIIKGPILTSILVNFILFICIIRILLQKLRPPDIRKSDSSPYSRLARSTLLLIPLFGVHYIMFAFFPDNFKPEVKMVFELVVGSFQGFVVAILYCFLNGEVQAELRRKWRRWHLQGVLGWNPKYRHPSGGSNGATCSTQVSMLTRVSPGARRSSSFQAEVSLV
How it was run: (§1)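 Membranes 2.5 μg/well; tracer ~40000 cpm; buffer 25 mM HEPES pH 7.4, 0.5% protease-free BSA; 1 h incubation, shaking. Glass-fibre filtration (0.5% polyethyleneamine presoak, 0.2% BSA block), 3× HEPES wash, dry 1 h at 60° C, scintillation count.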

[1] = Rat serum stability studies (remaining active peptide by DiscoveRx cAMP on CHO-VPAC2 cells); type: in vitro ADME
How it was run: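 EC50 from a DiscoveRx cAMP read-out on CHO-VPAC2 cells indexes how much peptide stays active after 18 h in rat serum at 37° C without aprotinin, against an aprotinin-protected 4° C aliquot.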

human VPAC2 [2] = target: T2, human VPAC2 (Homo sapiens, UniProt P41587); test: Alpha screen cAMP in vitro potency, human VPAC2 receptor; type: cell-based; details: cAMP generation; single result from two analyses performed in a single run; read-out: Human VPAC2 Receptor: Alpha Screen EC50
T2 construct: expressed in transfected cells
T2 sequence (P41587 24-438): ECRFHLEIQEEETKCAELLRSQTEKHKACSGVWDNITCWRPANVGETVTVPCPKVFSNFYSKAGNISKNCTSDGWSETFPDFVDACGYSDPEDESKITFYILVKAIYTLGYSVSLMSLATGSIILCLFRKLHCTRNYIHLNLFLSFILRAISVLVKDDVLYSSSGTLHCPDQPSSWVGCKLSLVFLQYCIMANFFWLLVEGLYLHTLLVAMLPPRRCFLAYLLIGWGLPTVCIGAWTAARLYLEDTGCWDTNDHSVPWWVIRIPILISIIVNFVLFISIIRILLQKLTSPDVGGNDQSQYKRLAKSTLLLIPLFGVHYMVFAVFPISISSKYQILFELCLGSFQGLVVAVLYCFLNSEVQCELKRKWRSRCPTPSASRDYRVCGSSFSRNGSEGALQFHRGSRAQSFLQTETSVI
How it was run: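 Stimulated cAMP accumulation is read by AlphaScreen after 60 min exposure of 50,000 non-enzymatically harvested cells to compound, followed by lysis with donor beads.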

rat VPAC2 receptor = target: T3, rat VPAC2 receptor (Rattus norvegicus, UniProt P35000); test: DiscoveRx in vitro potency, CHO-PO cells transiently transfected with rat VPAC 2 receptor DNA; type: cell-based; set-up: expressed in transfected cells; host or cells: CHO-PO, transient
T3 sequence (P35000 23-437): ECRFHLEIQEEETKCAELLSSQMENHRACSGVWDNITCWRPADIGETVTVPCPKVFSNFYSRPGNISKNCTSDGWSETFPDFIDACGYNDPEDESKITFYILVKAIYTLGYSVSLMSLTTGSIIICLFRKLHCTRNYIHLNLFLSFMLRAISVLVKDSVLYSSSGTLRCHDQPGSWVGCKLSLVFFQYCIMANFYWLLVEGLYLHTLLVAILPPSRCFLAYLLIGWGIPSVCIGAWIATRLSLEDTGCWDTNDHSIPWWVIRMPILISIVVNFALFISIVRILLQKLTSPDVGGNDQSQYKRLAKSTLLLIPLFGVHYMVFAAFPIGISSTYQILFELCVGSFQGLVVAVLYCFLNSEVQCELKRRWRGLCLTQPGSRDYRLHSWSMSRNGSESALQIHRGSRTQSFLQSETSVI
Method: Also, the cells are washed twice. […] The stimuli are present for 30 minutes. Then, the assay buffer is gently removed.

human VPAC2 [3] = target: T2, human VPAC2; test: Filter binding assay, membranes of stable VPAC2 cell line, 125I-labeled VIP tracer (Table 2); details: read-out: Human VPAC2 Receptor Binding
How it was run: as §1

human PAC1 [4] = target: T4, human PAC1 (Homo sapiens, UniProt P41586); test: Filter binding assay, membranes of cells transiently transfected with human PAC1, 125I-labeled PACAP-27 tracer (Table 2); set-up: expressed in transfected cells; details: read-out: Human PAC1 Receptor Binding
T4 sequence (P41586 21-468): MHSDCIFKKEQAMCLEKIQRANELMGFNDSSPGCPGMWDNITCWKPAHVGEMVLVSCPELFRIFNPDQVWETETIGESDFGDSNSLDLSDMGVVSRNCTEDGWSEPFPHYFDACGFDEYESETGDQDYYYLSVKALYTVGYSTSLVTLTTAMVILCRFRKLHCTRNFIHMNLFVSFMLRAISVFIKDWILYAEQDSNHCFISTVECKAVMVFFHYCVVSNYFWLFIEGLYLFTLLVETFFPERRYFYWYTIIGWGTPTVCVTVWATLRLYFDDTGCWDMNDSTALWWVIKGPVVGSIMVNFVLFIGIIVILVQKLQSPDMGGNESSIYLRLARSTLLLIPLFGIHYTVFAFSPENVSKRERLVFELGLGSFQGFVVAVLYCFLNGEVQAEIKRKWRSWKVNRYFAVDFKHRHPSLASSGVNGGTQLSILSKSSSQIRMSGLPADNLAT
How it was run: as §1

human PAC1 [5] = target: T4, human PAC1; test: DiscoveRx cAMP in vitro potency, CHO-PO cells transiently transfected with human PAC1 receptor; type: cell-based; set-up: expressed in transfected cells; host or cells: CHO-PO, transient (Lipofectamine); details: cAMP generation; mean of two independent runs; read-out: Human PAC1 Receptor: DiscoveRx EC50
Method: Also, the cells are washed twice. The cells are incubated in assay buffer plus IBMX for 15 minutes at room temperature. […] The stimuli are present for 30 minutes. Then, the assay buffer is gently removed. […] At day 3, the assay described above for the VPAC2 receptor cell line is performed.

Row | Compound | IC50 (human VPAC1) | Rat Serum Stability (estimated purity in % after 18 hours) [1] | EC50 (human VPAC2 [2]) | EC50 (rat VPAC2 receptor) | IC50 (human VPAC2 [3]) | IC50 (human PAC1 [4]) | Rat Serum Stability (Estimated purity in % after 72 hours) [1] | EC50 (human PAC1 [5])
1 | CCCCCC(=O)N[C@@H](Cc1c[nH]cn1)C(=O)N[C@@H](CO)C(=O)N[C@@H](CC(=O)O)C(=O)N[C@@H](C)C(=O)N[C@H](C(=O)N[C@@H](Cc1ccccc1)C(=O)N[C@H](C(=O)N[C@@H](CC(=O)O)C(=O)N[C@@H](CC(N)=O)C(=O)N[C@@H](Cc1ccc(O)cc1)C(=O)N[C@H](C(=O)N[C@@H](CCCNC(=N)N)C(=O)N[C@@H](CC(C)C)C(=O)N[C@@H](CCCNC(=N)N)C(=O)N[C@@H](CCCCN)C(=O)N[C@@H](CCC(N)=O)C(=O)N[C@H](C(=O)N[C@@H](C)C(=O)N[C@@H](C)C(=O)NC(C)(C)C(=O)N[C@@H](CCCCN)C(=O)N[C@@H](Cc1ccc(O)cc1)C(=O)N[C@@H](CC(C)C)C(=O)N[C@@H](CCC(N)=O)C(=O)N[C@@H](CO)C(=O)N[C@H](C(=O)N[C@@H](CCCCN)C(=O)N[C@@H](CC(N)=O)C(=O)N[C@@H](CCCCN)C(=O)N[C@@H](CCCNC(=N)N)C(=O)N[C@@H](Cc1ccc(O)cc1)C(=O)NCC(=O)NCC(=O)N1CCC[C@H]1C(=O)N[C@@H](CO)C(=O)N[C@@H](CO)C(=O)NCC(=O)N[C@@H](C)C(=O)N1CCC[C@H]1C(=O)N1CCC[C@H]1C(=O)N1CCC[C@H]1C(=O)N[C@@H](CO)C(=O)O)[C@@H](C)CC)C(C)C)[C@@H](C)O)[C@@H](C)O)C(C)C [Agonist P169] | 240 nM | 0.40% | 0.14 nM | 0.07 nM | 0.26 nM | 482 nM | – | –
2 | CCCCCC(=O)N[C@@H](Cc1c[nH]cn1)C(=O)N[C@@H](CO)C(=O)N[C@@H](CC(=O)O)C(=O)N[C@@H](C)C(=O)N[C@H](C(=O)N[C@@H](Cc1ccccc1)C(=O)N[C@H](C(=O)N[C@@H](CC(=O)O)C(=O)N[C@@H](CC(N)=O)C(=O)N[C@@H](Cc1ccc(O)cc1)C(=O)N[C@H](C(=O)N[C@@H](CCCN)C(=O)N[C@@H](CC(C)C)C(=O)N[C@@H](CCCNC(=N)N)C(=O)NC(C)(C)C(=O)N[C@@H](CCC(N)=O)C(=O)N[C@H](C(=O)N[C@@H](C)C(=O)N[C@@H](C)C(=O)NC(C)(C)C(=O)N[C@@H](CCCCN)C(=O)N[C@@H](Cc1ccc(O)cc1)C(=O)N[C@@H](CC(C)C)C(=O)N[C@@H](CCC(N)=O)C(=O)N[C@@H](CO)C(=O)N[C@H](C(=O)N[C@@H](CCCN)C(=O)N[C@@H](CC(N)=O)C(=O)N[C@@H](CCCN)C(=O)NCC(=O)NCC(=O)N1CCC[C@H]1C(=O)N[C@@H](CO)C(=O)N[C@@H](CO)C(=O)NCC(=O)N[C@@H](C)C(=O)N1CCC[C@H]1C(=O)N1CCC[C@H]1C(=O)N1CCC[C@H]1C(=O)N[C@@H](CO)C(=O)O)[C@@H](C)CC)C(C)C)[C@@H](C)O)[C@@H](C)O)C(C)C [Agonist P326] | > 3000 nM | 90.10% | 0.21 nM | 0.09 nM | 0.33 nM | > 25000 nM | 49.6% | –
3 | H-HSDAVFTDNYTRLRKQVAAKKYLQSIKNKRYC [Agonist P37] | – | – | – | – | – | – | – | 35.6 nM
4 | Hexanoyl-HSDAVFTDNYTRLK[Aib]QVAA[Aib]KYLQSIKNKRYGGPSSGAPPPS [Agonist P318] | > 3000 nM | 29.95% | 0.32 nM | 0.09 nM | 0.63 nM | > 25000 nM | – | –
5 | Hexanoyl-HSDAVFTDNYTRLRKQVAAK[Aib]YLQSIKNKRYGGPSSGAPPPS [Agonist P170] | 275 nM | 0.31% | 0.18 nM | 0.15 nM | 0.34 nM | 200 nM | – | –
6 | Hexanoyl-HSDAVFTDNYTRLRKQVAAQKYLQSIKNKRYGGPSSGAPPPS [Agonist P150] | 444 nM | 0.21% | 0.18 nM | 0.1 nM | 0.25 nM | 916 nM | – | –
7 | Hexanoyl-HSDAVFTDNYTRLRQQVAAKKYLQSIKNKRYGGPSSGAPPPS [Agonist P177] | 128 nM | 0.49% | 0.21 nM | 0.1 nM | 0.7 nM | 276 nM | – | –
8 | Hexanoyl-HSDAVFTDNYTRLR[Aib]QLAA[Aib]KYLQSIKNKRYGGPSSGAPPPS [Agonist P291] | > 3000 nM | 28.09% | 0.36 nM | 0.06 nM | 0.45 nM | > 25000 nM | – | –
9 | Hexanoyl-HSDAVFTDNYTRLR[Aib]QVAAKKYLQSIKNKRYGGPSSGAPPPS [Agonist P168] | 234 nM | 10.47% | 0.27 nM | 0.05 nM | 0.21 nM | 538 nM | – | –
10 | Hexanoyl-HSDAVFTDNYTRLR[Aib]Q[Nle]AA[Aib]KYLQSIKNKRYGGPSSGAPPPS [Agonist P325] | > 3000 nM | 13.13% | 0.24 nM | 0.04 nM | 0.4 nM | > 25000 nM | – | –
11 | Hexanoyl-HSDAVFTDNYTRL[hArg]KQVAAKKYLQSIKNKRYGGPSSGAPPPS [Agonist P305] | 268 nM | 0.23% | 0.17 nM | 0.04 nM | 0.17 nM | 171 nM | – | –
